From ChEMBL document CHEMBL4811264, “Design and synthesis of novel diosgenin-triazole hybrids targeting inflammation as potential neuroprotective agents” (Bioorg Med Chem Lett, 2021) come the findings set out here.

Series [1] deals with SH-SY5Y. The series is described as follows: Neuroprotective activity against oxygen glucose-deprivation induced toxicity in human SH-SY5Y cells at 10 uM relative to control. Type of series: functional.
Series [2] has as its system RAW264.7. The series is described as follows: Antiinflammatory activity in mouse RAW264.7 cells assessed as inhibition of LPS-induced NO production at 10 uM relative to control. Type of series: functional.
The test system of series [3] is RAW264.7. In words: Cytotoxicity against mouse RAW264.7 cells assessed as decrease in cell viability by MTT assay. It is filed as cell-based. Background: Tetrazolium dyes change colour on reduction, which living cells bring about.
The test system of series [4] is SH-SY5Y. In words: Neuroprotective activity against oxygen glucose-deprivation induced toxicity in human SH-SY5Y cells at […] relative to control. Type of series: functional.

Compound `C[C@@H]1CC[C@@]2(OC1)O[C@H]1C[C@H]3[C@@H]4CCc5cc(OCc6cn(Cc7ccccc7F)nn6)ccc5[C@H]4CC[C@]3(C)[C@H]1[C@@H]2C` gave an Activity in series [1] of 12.1%. Moreover, the inhibition at 10 µM in series [2] amounted to 14.2%.
In the same order, the values of `Cc1ccc(Cn2cc(COc3ccc4c(c3)CC[C@@H]3[C@@H]4CC[C@]4(C)[C@@H]5[C@H](C[C@@H]34)O[C@]3(CC[C@@H](C)CO3)[C@H]5C)nn2)cc1` are 34.1% and 35.6%.
In the case of `C[C@@H]1CC[C@@]2(OC1)O[C@H]1C[C@H]3[C@@H]4CCc5cc(OCc6cn(-c7ccccc7C#N)nn6)ccc5[C@H]4CC[C@]3(C)[C@H]1[C@@H]2C`, the Activity in series [1] is 81.2%; in series [3], “Toxic”.
Consider `C[C@@H]1CC[C@@]2(OC1)O[C@H]1C[C@H]3[C@@H]4CCc5cc(OCc6cn(-c7cc(F)cc(F)c7)nn6)ccc5[C@H]4CC[C@]3(C)[C@H]1[C@@H]2C`, for which the Activity in series [1] was 71.4%.
With `C[C@@H]1CC[C@@]2(OC1)O[C@H]1C[C@H]3[C@@H]4CCc5cc(OCc6cn(Cc7ccc(F)cc7)nn6)ccc5[C@H]4CC[C@]3(C)[C@H]1[C@@H]2C`, the Activity in series [1] is recorded as 50.7%. Besides, in series [2], the inhibition at 10 µM is 19.7%.
For `C[C@@H]1CC[C@@]2(OC1)O[C@H]1C[C@H]3[C@@H]4CCc5cc(OCc6cn(Cc7ccccc7)nn6)ccc5[C@H]4CC[C@]3(C)[C@H]1[C@@H]2C`, in series [1], the Activity amounted to 35.5%. Also, the inhibition at 10 µM in series [2] was 23.5%.
`C[C@@H]1CC[C@@]2(OC1)O[C@H]1C[C@H]3[C@@H]4CCc5cc(OCc6cn(-c7ccccc7)nn6)ccc5[C@H]4CC[C@]3(C)[C@H]1[C@@H]2C` came in with an Activity in series [1] of 12.1%.
In the case of `COc1ccc(Cn2cc(COc3ccc4c(c3)CC[C@@H]3[C@@H]4CC[C@]4(C)[C@@H]5[C@H](C[C@@H]34)O[C@]3(CC[C@@H](C)CO3)[C@H]5C)nn2)cc1`, the Activity in series [1] was 73.9%. In addition, the inhibition at 10 µM in series [2] was 40.4%.
The corresponding values for `COc1ccc(-n2cc(COc3ccc4c(c3)CC[C@@H]3[C@@H]4CC[C@]4(C)[C@@H]5[C@H](C[C@@H]34)O[C@]3(CC[C@@H](C)CO3)[C@H]5C)nn2)cc1` are 40.1% and 9.9%.
Take `CCCn1cc(COc2ccc3c(c2)CC[C@@H]2[C@@H]3CC[C@]3(C)[C@@H]4[C@H](C[C@@H]23)O[C@]2(CC[C@@H](C)CO2)[C@H]4C)nn1`: the Activity in series [1] was determined as 73.9%.
Same read-out and setting: the figure for `Cc1ccc(-n2cc(COc3ccc4c(c3)CC[C@@H]3[C@@H]4CC[C@]4(C)[C@@H]5[C@H](C[C@@H]34)O[C@]3(CC[C@@H](C)CO3)[C@H]5C)nn2)cc1` is 3.3%; for `C[C@@H]1CC[C@@]2(OC1)O[C@H]1C[C@H]3[C@@H]4CCc5cc(OCc6cn(Cc7cc(F)c(F)cc7F)nn6)ccc5[C@H]4CC[C@]3(C)[C@H]1[C@@H]2C` it is 16.5%.
In the case of `C[C@@H]1CC[C@@]2(OC1)O[C@H]1C[C@H]3[C@@H]4CCc5cc(OCc6cn(Cc7ccc(C#N)cc7)nn6)ccc5[C@H]4CC[C@]3(C)[C@H]1[C@@H]2C`, in series [1], the Activity amounted to 57.6%. The inhibition at 10 µM in series [2] was determined as 11.9%.
In the same order, the values of `C[C@@H]1CC[C@@]2(OC1)O[C@H]1C[C@H]3[C@@H]4CCc5cc(OCc6cn(Cc7ccc(C(F)(F)F)cc7)nn6)ccc5[C@H]4CC[C@]3(C)[C@H]1[C@@H]2C` are 66.4% and 9.5%.
`C[C@@H]1CC[C@@]2(OC1)O[C@H]1C[C@H]3[C@@H]4CCc5cc(OCc6cn(Cc7cccc(F)c7)nn6)ccc5[C@H]4CC[C@]3(C)[C@H]1[C@@H]2C`: the Activity in series [1] is on record as 51.6%. Moreover, the inhibition at 10 µM in series [2] was determined as 30.6%.
With `CC(=O)N[C@@H](CS)C(=O)O` [ACETYLCYSTEINE], the Activity in series [4] is 84.3%.
In series [1], `C[C@@H]1CC[C@@]2(OC1)O[C@H]1C[C@H]3[C@@H]4CC=C5C[C@@H](O)CC[C@]5(C)[C@H]4CC[C@]3(C)[C@H]1[C@@H]2C` [DISOGENIN] displayed an Activity of 3.5%. Besides, in series [2], the inhibition at 10 µM is 5.9%.
In the case of `COc1ccc2c(c1)c(CC(=O)O)c(C)n2C(=O)c1ccc(Cl)cc1` [INDOMETHACIN], the inhibition at 10 µM in series [2] was 34.9%.

One may read the inhibition as how much of the control response was suppressed.
